Assay results from patent publication US10086028B2, “Method for treating vascular inflammation, improving skin beauty and improving male sexual function using ginseng berry” (AMOREPACIFIC CORPORATION, priority 2007, dated 2018).

Experiments:
[1] = test system: melanocytes (MeI-Ab cells); experiment: Inhibition of melanin generation in mouse melanocytes; type: cell-based, C57BL/6 mouse; details: added for 3 consecutive days; sample 10 μg/mL
Method: Inhibition of melanin generation in mouse melanocytes was evaluated in order to confirm the effect of the ginseng berry extract of Example 1 of inhibiting melanin generation.
First, melanocytes (MeI-Ab cells) derived from C57BL/6 mouse [Dooley, T. P. et al, Skin Pharmacol., 7, pp. 188-200] were cultured in Dulbecco's modified Eagle's medium (DMEM) containing 10% FBS, 100 nM 2-O-tetradecanoylphorbol-13-acetate and 1 nM cholera toxin under the condition of 37° C., 5% CO2. The cultured MeI-Ab cells were separated using 0.25% trypsin-EDTA, and cultured on a 24-well plate to a concentration of 10^5 cells/well. Starting from day 2, the ginseng berry extract of Example 1 (1 μg/mL, 10 μg/mL and 100 μg/mL), the ginseng berry saponin concentrate of Example 2 (10 μg/mL), the ginseng root extract of Comparative Example 1 (10 μg/mL) or ginsenosides Rg1, Rg2, Rh1 or Re (10 μg/mL) was added for 3 consecutive days. Hydroquinone (10 μg/mL) was used as a positive control substance. Then, after removing the medium and washing with PBS, the cells were dissolved with 1 N sodium hydroxide. Absorbance was measured at 400 nm, and melanin generation inhibition ratio was calculated by Equation 3.

[2] = test system: endothelial cells (HUVEC); experiment: Increase of NO generation in endothelial cells (Test Example 12); type: cell-based
Method: Endothelial cells were adhered on a gelatin-coated 24-well plate, with a density of 2.5×10^4 cells/well. The cells were cultured for 12 hours using a growth medium. The endothelial cells were pre-treated for 12 hours, using the ginseng berry extract, the ginseng berry saponin concentrate or the ginseng root extract (Examples 1-2 and Comparative Example 1). Then, they, including a non-treated group, were treated with 10 μmol/L DAF-FM diacetate (Molecular Probe, Oreg.) at 37° C. for 30 minutes in an FBS-free M199 medium. Subsequently, the endothelial cells were washed 3 times with an FBS-free M199 medium, put in a parallel plate flow chamber, and stimulated with light isolated from a mercury lamp. Excitation wavelength was 488 nm. Fluorescence of 515 nm is emitted when DAF binds with NO.
Increase of generation of NO, which is known as an important signal transduction substance related with penile erection, in endothelial cells was observed after treating with the ginseng berry extract. Experiment was carried out in a manner substantially the same as that of Test Example 2, but L-arginine was treated together with the ginseng root extract of Comparative Example 1 and the ginseng berry extract of Example 1. […]

[3] = test system: human HaCaT keratinocytes; experiment: Antioxidative effect: removal of UV-generated ROS in HaCaT keratinocytes; type: cell-based; details: ROS generated by UV in HaCaT; sample 10 μg/mL (Trolox given as (10))
From the text: Antioxidative effect of the ginseng berry extract was investigated by comparing the ability of removing reactive oxygen species (ROS) generated in human HaCaT keratinocytes by ultraviolet (UV) radiation.

[4] = test system: matrix metalloproteinase I (MMP-1); experiment: Inhibition of UVB-induced MMP-1 expression in human fibroblasts (ELISA); type: cell-based; details: UVB 40 mJ/cm^2, 2nd day, relative to UV control; 10 ng/mL
Method: Human fibroblasts were cultured on a 12-well plate incubator to a concentration of 10^5 cells/well. Then, after irradiating UVB at 40 mJ/cm^2, the medium was replaced by one including the ginseng berry extract of Example 1 (1 μg/mL and 10 μg/mL), the ginseng berry saponin concentrate of Example 2 (10 μg/mL), the ginseng root extract of Comparative Example 1 (10 μg/mL) or ginsenosides Rg1, Rg2, Rh1 or Re (10 μg/mL). 10 ng/mL TGF-β was used as a positive control substance. On the 2nd day of culturing, the cells were harvested and the quantity of produced matrix metalloproteinase I (MMP-1) was analyzed using ELISA. The result was calculated as a relative value with respect to the control group, which was irradiated with UV without treating with a test substance.

type I procollagen = experiment: Type I procollagen assay in human fibroblasts (ELISA); type: cell-based; details: 3rd day, 10 ng/mL
Method: Human fibroblasts were cultured on a 12-well plate incubator to a concentration of 10^5 cells/well. Then, the medium was replaced by one including the ginseng berry extract of Example 1 (1 μg/mL and 10 μg/mL), the ginseng berry saponin concentrate of Example 2 (10 μg/mL), the ginseng root extract of Comparative Example 1 (10 μg/mL) or ginsenosides Rg1, Rg2, Rh1 or Re (10 μg/mL). 10 ng/mL transforming growth factor β (TGF-β) was used as a positive control substance.
On the 3rd day of culturing, the cells were harvested and the quantity of produced type I procollagen was analyzed using ELISA. The result was calculated as a relative value with respect to the negative control group, which was not treated with a test substance.

## Oc1ccc(O)cc1 [Hydroquinone]
[1]
  Melanin generation inhibition ratio (%): 39%

## N=C(N)NCCC[C@H](N)C(=O)O [L-Arginine]
[2]; 250 μM
  increased NO generation with respect to the negative control group: about 2.7 times
[2]; 500 μM
  increased NO generation with respect to the negative control group: ~5.5 times

## Cc1c(C)c2c(c(C)c1O)CCC(C)(C(=O)O)O2 (stereo not drawn) [Trolox]
[3]
  Antioxidative effect (%): 33%

## transforming growth factor β [TGF-β]
[4]
  MMP-1 expression (%): 65%
Type I procollagen
  Procollagen activity relative to negative control (%): 145%
